Experimental data from patent US9260419B2, “Polymorphic salt of a metap-2 inhibitor and methods of making and using same” (Zafgen, Inc., priority 2012, dated 2016).
Counter-ions that a name gives are not always drawn.

Tests used:
[1] = challenge stability study, stability-indicating HPLC assay and physical description; type: physicochemical; conditions: sealed vials
Method: A challenge stability study was carried out with amorphous and crystalline forms. Samples were stored in sealed vials and stored at room temperature (25° C.) and 40° C. Samples were assayed at various times with a stability-indicating HPLC assay. Retained potency was determined and physical description was observed.

[2] = relative stability of crystalline forms; type: physicochemical
[3] = 25° C., 8 days, hemioxalate salt
[4] = 25° C., 12 days, hemioxalate salt
[5] = 40° C., 5 days, hemioxalate salt

% Purity (by peak area) [1, 3] [%]	Physical Description [1, 3]	% Purity (by peak area) [1, 4] [%]	Physical Description [1, 4]	% Purity (by peak area) [1, 5] [%]	Physical Description [1, 5]	Physical Description ([1]; Time zero)	% Purity (by peak area) ([1]; Time zero, hemioxalate salt) [%]	stability relative to Form A [2]	SMILES
97.86	Free flowing	97.84	Free flowing	97.72	Free flowing	Free flowing	97.91	–	CO[C@@H]1[C@H](OC(=O)/C=C/c2ccc(OCCN(C)C)cc2)CCC2(CO2)[C@H]1C1(C)OC1CC=C(C)C (some centres unmarked) [Crystalline, 6-O-(4-dimethylaminoethoxy)cinnamoyl fumagillol hemioxalate salt]
–	–	–	–	–	–	–	–	metastable relative to Form A	CO[C@@H]1[C@H](OC(=O)/C=C/c2ccc(OCCN(C)C)cc2)CCC2(CO2)[C@H]1C1(C)OC1CC=C(C)C (some centres unmarked) [Form B, 6-O-(4-dimethylaminoethoxy)cinnamoyl fumagillol hemioxalate]
86.58	White powder	83.88	White powder	86.91	White powder	Free flowing	94.98	–	CO[C@@H]1[C@H](OC(=O)/C=C/c2ccc(OCCN(C)C)cc2)CCC2(CO2)[C@H]1C1(C)OC1CC=C(C)C (some centres unmarked) [Amorphous, 6-O-(4-dimethylaminoethoxy)cinnamoyl fumagillol hemioxalate salt]
